# Source: patent publication US11419875B2, “Compounds and compositions for treating hematological disorders” (Aurigene Discovery Technologies Limited, priority 2017, dated 2022)
# Legend:
# [1] = tested on: MOLM-14 cell line (FLT3-ITD); test: Cell viability assay (CellTiter-Glo, 72 h), parental MOLM-14; type: cell-based; settings: Homo sapiens, mean of at least 3 assays
# Method: (§1) The parental MOLM-14 cell line contained a FLT3-ITD mutation. Quizartinib-resistant MOLM-14 derivative cell lines MOLM-14 FLT3-ITD/D835Y and MOLM-14 FLT3-ITD/F691L contained a double FLT3 mutation (the original ITD mutation and a secondary mutation within the kinase domain).
# (§2) All cells lines were cultured in RPMI 1640+GlutaMAX supplemented with 1× Pen-Strep and 10% FBS (referred to as media hereafter). Cells were cultured in 75 cm^2 or 225 cm^2 tissue culture flasks in a 37° C. humidified tissue culture incubator with 5% CO2. Cell densities were maintained between 0.5-2.0×10^6 cells/mL.
# (§3) Two days before compound treatment, cells were pelleted and resuspended in fresh medium. The day of dosing, cells were counted and stained with trypan blue to determine cell viability. 5,000 viable cells were transferred in a volume of 90 μL or 135 μL per well to all wells of a 96-well tissue culture plate and returned to the tissue culture incubator. […]
# (§4) After 72 h incubation, cell viability was assessed using the CellTiter-Glo Luminescent Cell Viability Assay (2.0) according to the vendor's instructions. […] Luminescence readings were measured using a TopCount384 instrument.
# (§5) The percent inhibition of the compound treated samples was determined relative to the DMSO-treated cell control samples. […] The mean EC50 values from at least 3 independent viability assays performed on different days were determined.
# MOLM-13 cell line = test: Anti-proliferative activity, MOLM-13 cell line (Example 5, CellTiter Glo); type: cell-based; settings: Homo sapiens, Example 5 procedure, 5,000 cells/well
# Method: (§6) The same procedure was used for both the MV4-11 cells and MOLM-13 cells. Each cell line has an ITD mutation in the FLT-3 kinase.
# (§7) The cells were grown to ˜80% confluence, split in half and grown overnight. The cells were seeded at a density of 5,000 cells/well in a volume of 150 μL into a 96-well black plate in all wells except columns 1 and 12 and rows A and H. They were incubated overnight in 10% serum and HBSS was added to wells on the periphery. In a deep 96-well plate, 1000 μL of 10% FBS was added into wells B2 and D2. 750 μL of 10% FBS, 1% DMSO medium per well was added in row B except well B2. 5 μL of 20 mM compound was added into well B2. 250 μL was transferred from column 2 to column 3 and mixed. The process was repeated until column G to give a 1:4 dilution. 15 μL of compound mixture was added to each well of the cell plate (135 μL volume).
# [2] = tested on: MOLM-14 FLT3-ITD/F691L tumors; test: MOLM-14 FLT3-ITD/F691L mouse xenograft tumor model; type: in vivo, athymic nude mice; settings: 100 mg/kg orally once-daily, after 12 or 14 days of dosing
# From the text: (§8) Compound A efficacy was compared to mice administered vehicle.
# MOLM-14 FLT3-ITD/F691L = test: Cell viability assay (CellTiter-Glo, 72 h), MOLM-14 FLT3-ITD/F691L; type: cell-based; settings: Homo sapiens, mean of at least 3 assays
# Method: as §1, §2, §3, §4, §5
# MV4-11 cells [3] = test: MV4-11 CellTiter Glo cell viability/proliferation assay (Example 2); type: cell-based; settings: Homo sapiens, procedure of Example 2, read-out: IC50, inhibition of proliferation in MV4-11 cells
# Method: The CellTiter Glo Luminescent cell viability assay is a highly sensitive homogenous assay to determine the number of viable cells in culture based on quantitation of ATP levels in metabolically active cells. Addition of CTG reagent results in cell lysis and generation of a luminescent signal proportional to the amount of ATP present. The amount of ATP is proportional to the number of cells present. The luminescence is measured using a multilabel reader capable of measuring luminescence. An increase or decrease in cell numbers results in a concomitant change in luminescene level, indicating the effect of the test material on cellular proliferation.
# CellTiter-Glo buffer was thawed and equilibrated to room temperature. Lyophilized CellTiter-Glo substrate was brought to room temperature. CTG reagent is prepared by mixing the CellTiter-Glo buffer (Promega Cat #G7572) into an amber bottle containing CellTiter-Glo substrate to reconstitute the lyophilized enzyme/substrate mixture. Both Buffer and the lyophilized substrate are supplied with the kit.
# Add 1% Penicillin Streptomycin and 10% FBS to commercially available liquid IMDM (Iscove's Modified Dulbecco's Medium, Invitrogen Cat #12440046).
# 1. MV4-11 cells were counted and re-suspended to a density of 0.1×10^6 cells/ml in complete IMDM medium. 95 μL of this cell suspension was added per well of a 96-well plate (black plate with clear bottom) to seed ˜0.1×10^5 cells per well. The plates were incubated at 37° C. under a humidified atmosphere of 5% CO2 for ˜2 hours before compound addition. 2. Test compounds were dissolved in 100% DMSO to generate a 2/6/10/20 mM stock solution. A 200× concentration of the required final concentrations was prepared in DMSO. 10 μL of each concentration (200×) was then diluted in 90 μL of serum-free IMDM to prepare an intermediate concentration of 20× in medium. The DMSO concentration in this step was 10% (Intermediate dilution). 5 μL of each intermediate dilution was then added in triplicates to cells previously seeded in 96-well plate. The final DMSO concentration was 0.5% in the experimental wells. Cells treated with 0.5% DMSO served as a positive control. 100 μL of complete IMDM medium served as media blank for data analysis. 200 μL of 1×PBS was added in all corner wells of the assay plate to avoid evaporation of media in experimental wells. Plates were then incubated for 72 hours in an incubator with 5% CO2 at 37° C. 3. To terminate the assay, 50 μL of CTG reagent was added to each well and the plate was incubated at room temperature for 15 minutes on a shaker. The plate was read using the luminescence mode on a multilabel reader capable of measuring luminescence. The luminescence values were plotted against respective concentrations of the test item using GraphPad Prism to calculate the IC50 value for the test item. Percent Inhibition is Calculated as Follows: […]
# Positive control wells contained cells, IMDM medium and 0.5% DMSO. Blank control wells contained IMDM medium alone.
# MOLM-14 FLT3-ITD/D835Y = test: Cell viability assay (CellTiter-Glo, 72 h), MOLM-14 FLT3-ITD/D835Y; type: cell-based; settings: Homo sapiens, mean of at least 3 assays
# Method: as §1, §2, §3, §4, §5
# [4] = tested on: MOLM-14 FLT3-ITD/D835Y tumors; test: MOLM-14 FLT3-ITD/D835Y mouse xenograft tumor model; type: in vivo, athymic nude mice; settings: 100 mg/kg orally once-daily, after 12 or 14 days of dosing
# From the text: as §8
# MOLM-14 FLT3-ITD tumors = test: MOLM-14 FLT3-ITD mouse xenograft tumor model; type: in vivo, athymic nude mice; settings: 100 mg/kg orally once-daily, after 12 or 14 days of dosing
# From the text: as §8
# MV4-11 cells [5] = test: AML xenograft model MV4-11, in vivo tumor growth inhibition
# Method: ND-2158 at 100 mpk was used as a control.
# MV4-11 cells were grown in Iscove's Modified Dulbecco's medium supplemented with 10% FBS and 1% penicillin streptomycin. To establish tumors, 15×10^6 MV4-11 cells were injected subcutaneously in 200 μl of 1:1 HBSS and ECM gel into the right flank of the athymic nude mice. Animals were randomized based on tumor volumes. […] Treatments were initiated when the average tumor volume sizes were 333 mm^3. Tumor volumes were measured three times a week and body weights were monitored daily.
# MV4-11 cell line = test: Anti-proliferative activity, MV4-11 cell line (Example 5, CellTiter Glo); type: cell-based; settings: Homo sapiens, Example 5 procedure, 5,000 cells/well
# Method: as §6, §7
structure (smiles),measurement,setting,value
Cc1cc(-c2nc(C(=O)Nc3cc4oc(N5CCOCC5)nc4nc3N3CC[C@@H](O)C3)co2)ccn1 [Compound A],EC50,[1],58 nM
same,IC50,MOLM-13 cell line,190 nM
same,percent tumor growth inhibition (% TGI),[2],73%
same,EC50,MOLM-14 FLT3-ITD/F691L,2490 nM
same,IC50,MV4-11 cells [3],31 nM
same,EC50,MOLM-14 FLT3-ITD/D835Y,108 nM
same,percent tumor growth inhibition (% TGI),[4],98%
same,percent tumor growth inhibition (% TGI),MOLM-14 FLT3-ITD tumors,90%
same,tumor growth inhibition,"MV4-11 cells [5]; 12.5 mg/kg orally once daily, 21 days",92%
same,tumor response,"MV4-11 cells [5]; 25 mg/kg orally once daily, 21 days",partial tumor regression
same,tumor response,"MV4-11 cells [5]; 50 mg/kg orally once daily, 21 days",partial tumor regression
same,"tolerability (clinical signs, gross pathological changes)","MV4-11 cells [5]; 12.5, 25, and 50 mg/kg orally once daily, 21 days",well tolerated without any treatment related clinical signs and gross pathological changes
same,tumor response,"MV4-11 cells [5]; 12.5 mpk, after 21 days of treatment",Tumor growth stasis
same,body weight,"MV4-11 cells [5]; all treatment groups, 21 days, FIG. 4",No body weight reduction was observed
same,IC50,MV4-11 cell line,70 nM
